Experimental data published in PMC6024778 (Viruses, 2018).
Counter-ions that a name gives are not always drawn. Like-named read-outs stand apart in the source and are kept apart here.

Experiments:
[1] = test system: MERS-CoV; assay: microbe, parasite or virus in culture; format: cell-based
[2] = test system: Huh-7 cells
[3] = in vitro; details: human
[4] = test system: MERS-CoV nucleocapsid (N) protein; format: cell-based
[5] = test system: MERS-CoV; format: cell-based
[6] = test system: HCoV-229E; assay: microbe, parasite or virus in culture; format: cell-based; details: Human coronavirus 229E
[7] = test system: MERS-CoV; format: cell-based; remark: listed apart in the source
[8] = in vitro; details: cat
[9] = test system: MERS-CoV; format: cell-based; remark: listed apart in the source
[10] = test system: rMERS-CoV; assay: microbe, parasite or virus in culture; format: cell-based, MERS-CoV; details: Middle East respiratory syndrome-related coronavirus, Huh-7, 72 h
[11] = test system: HCoV-OC43; assay: microbe, parasite or virus in culture; format: cell-based, betacoronavirus OC43 strain; details: Betacoronavirus 1, OC43
[12] = test system: MERS-CoV; format: cell-based; remark: listed apart in the source
[13] = test system: MERS-CoV; format: cell-based; remark: listed apart in the source
[14] = test system: Feline infectious peritonitis virus (FIPV); assay: microbe, parasite or virus in culture; format: cell-based; details: Alphacoronavirus 1
[15] = Middle East respiratory syndrome-related coronavirus, Huh-7, 72 h

| Compound | EC50 ([1]; read-out: EC50) [µM] | CC50 [3] [µM] | EC50 [1, 15] [µM] | further results |
| --- | --- | --- | --- | --- |
| CC(=O)c1ccc2c(c1)N(CCCN1CCN(CCO)CC1)c1ccccc1S2 [Acetophenazine maleate] | 11.2 ± 5 | – | – | CC50 [2]: 23.6 ± 3.8 µM |
| CCN(CC)Cc1cc(Nc2ccnc3cc(Cl)ccc23)ccc1O [Amodiaquine dihydrochloride dehydrate] | 2.4 ± 0.7 | – | – | – |
| CCN(CC)Cc1cc(Nc2ccnc3cc(Cl)ccc23)ccc1O [Amodiaquine dihydrochloride] | 2.1 ± 0.7 | – | – | – |
| CCN(CC)CCCC(C)Nc1ccnc2cc(Cl)ccc12 (stereo not shown) [Chloroquine diphosphate] | – | > 50 | 12 ± 3 | – |
| CN(C)CC/C=C1\c2ccccc2CSc2ccccc21 [Dosulepin hydrochloride] | – | 28.9 | 3.4 | – |
| Nc1ccn([C@@H]2O[C@H](CO)[C@@H](O)C2(F)F)c(=O)n1 [Gemcitabine, gemcitabine hydrochloride] | – | – | 1.2 | viral N protein expression [4]: completely abolished; production of infectious MERS-CoV particles [5]: completely abolished |
| CCN(CCO)CCCC(C)Nc1ccnc2cc(Cl)ccc12 (stereo not shown) [Hydroxychloroquine sulfate] | – | > 50 | 13.3 ± 2.1 | – |
| OCCOCCN1CCN(C(c2ccccc2)c2ccc(Cl)cc2)CC1 (stereo not shown) [Hydroxyzine pamoate] | – | > 50 | 14.4 ± 3.4 | – |
| COc1ccc2c(c1)N(C[C@H](C)CN(C)C)c1ccccc1S2 [Methotrimeprazine maleate salt] | 2.5 | – | – | CC50 [2]: 24.5 µM |
| O=C(Nc1ccncc1)c1cc([N+](=O)[O-])ccc1Cl [N1-(4-pyridyl)-2-chloro-5-nitrobenzamide] | – | > 50 | 10.5 ± 0.3 | – |
| COc1ccc(C2=N[C@@H](c3ccc(Cl)cc3)[C@@H](c3ccc(Cl)cc3)N2C(=O)N2CCNC(=O)C2)c(OC(C)C)c1 [Nutlin-3] | – | 26.8 ± 1.6 | 6.9 ± 1.4 | – |
| CN1CCN(CCOc2cc(OC3CCOCC3)c3c(Nc4c(Cl)ccc5c4OCO5)ncnc3c2)CC1 [Saracatinib] | – | – | 2.9 ± 0.6 | EC50 [6]: 2.4 µM; antiviral activity (viral titer) [7]: less effective; reduction of MERS-CoV titer [7]: more pronounced; viral titer [7]: marked reduction; CC50 [8]: > 50 µM; intracellular viral genomic (ORF1a) and mRNA (upE) syntheses [9]: near complete inhibition; EC50 [10]: 9.3 µM; EC50 [11]: 5.1 µM; intracellular viral genomic RNA and mRNA expressions [12]: significant decrease; syntheses of intracellular viral genomic RNA and mRNAs [12]: severely affected; viral genomic RNA and mRNA syntheses [12]: near complete inhibition; reduction in infectious virus titers [13]: ~ 80%; EC50 [14]: 7 µM; selectivity index (SI) [1]: > 17; CC50 ([2]; human): 57 ± 5.5 µM; reduction of viral titer [5]: marginal reduction |
| CN1CCN(c2nc(C3=C(c4c[nH]c5ccccc45)C(=O)NC3=O)c3ccccc3n2)CC1 [Sotrastaurin] | – | > 50 | ~9.7 | – |
